We go through one compound from ChEMBL document CHEMBL3351365, “Short oligonucleotide prodrug having 5-fluoro and 5-iodouracil inhibits the proliferation of cancer cells in a photo-responsive manner” (Bioorg Med Chem Lett, 2014).

Each structure is given as a SMILES string.

The data set can be described thus: Retention time of the compound treated with FU'U ODN by HPLC analysis. The data set is classed as physicochemical.

`O=c1[nH]c(=O)n([C@H]2C[C@H](O)[C@@H](CO)O2)cc1F` [FLOXURIDINE]: the Retention_time is 19 min.
